# Assay results published in patent US12392768B2, “Methods for determining blood gas or metabolic parameters” (RADIOMETER MEDICAL APS, priority 2019, dated 2025).
# “Also recorded” adds a separate entry of the source. Counter-ions that a name gives are not always drawn.
# Experiments:
# platelets [1] = test: ABX platelet count, automated hematology analyzer (Example 4); assay type: cell-based; settings: for Mean ABX PLT count: Iloprost 1 μM in PicoSAM, EDTA reference
# Protocol: Blood samples drawn and mixed after 15 minutes as described above were assessed with an automated hematology analyzer (Horiba, ABX Pentra 60C+) (ABX) for complete blood count (CBC) with 5-diff including WBC concentration, platelet concentration, mean platelet volume (MPV), concentrations and fractions of neutrophils, lymphocytes, monocytes, eosinophils and basophils, RBC concentration, hematocrit, hemoglobin concentration, RBC descriptive parameters (MCV, MCH, MCHC, RDW). Samples were prepared from several donors. Measured platelet concentration was used to compare to manually assessed platelet concentrations of iloprost heparin samples (in PICO70 samplers) and EDTA anti-coagulated samples. For control, EDTA samples with no platelet aggregates are used as reference measurement for the measured automated ABX platelet concentration.
# platelets [2] = test: Microscopic wet mount images of fixed blood samples, platelet aggregation (Example 2); assay type: cell-based; settings: 40x phase contrast, eptifibatide 20 μM added to heparin
# Source text: Venous blood samples drawn, mixed and fixed with 10% formalin solution, as described before in Example 1 were used to prepare wet mounts on a glass slide and covered with a glass coverslip. Wet mount samples of fixed blood cells were then imaged with a Leica 750 microscope using a 40× phase-contrast air objective.
# platelets [3] = test: Manual platelet count versus EDTA reference (Example 4); assay type: cell-based; settings: for Mean Manual PLT count: Iloprost 1 μM in PicoSAM, EDTA reference
# Protocol: For each experiment PICO70 syringe samplers (Radiometer Medical ApS) were prepared just before sample drawing. For “LiHep” (Liquid Heparin) conditions, PICO70 samplers were emptied of the gold ball and heparin brick and 15 μl of aqueous liquid balanced heparin comprising heparin lithium (Celsus Laboratories) and heparin sodium (Celsus Laboratories) (final heparin conc. 60 IU/mL blood) and 15 μl of the solvent of the tested drug were added. For “PicoSAM” conditions, unmodified PICO70 samplers (with gold ball and heparin brick) were used and 15 μl of the solvent of the respective tested drug was added. For “LiHep xxx drug” conditions, PICO70 samplers were emptied as described for LiHep and 15 μl of liquid balanced heparin (final heparin conc. 60 IU/mL blood) and 15 μl of the dissolved tested drug were added. For “PicoSAM xxx drug” conditions, unmodified PICO70 samplers (with gold ball and heparin brick) were used and 15 μl of the dissolved tested drug was added. […] An EDTA tube (BD Vacutainer with spray-coated K2EDTA, 10 ml) and duplicate samples of all conditions of PICO70 syringe samplers were filled by drawing venous blood via a butterfly needle using a sealed VTC (vented tip cap) to fill the otherwise self-aspirating PICO70 samplers with 1.5 mL venous whole blood. Samplers were inverted 8 times immediately after drawing to insure proper anti-coagulation of the samples. The blood samples were mixed gently by hand (samplers without gold ball) or on a SAM mixer (Radiometer Medical ApS) for 15 minutes after drawing the sample. Mixed samples were fixed immediately with 10% formalin solution (1:1 dilution of blood in formalin) for at least 10 minutes and further diluted 1:10 in platelet dilution solution to hemolyze red blood cells (RBCs) to assessed manual platelet count using a hemocytometer. […] Single platelet counts were adjusted for dilution with liquid heparin and or dissolved drug solution to calculate single platelet concentrations.
# platelets and WBCs = test: Wet mount images of stained and hemolyzed blood samples (Example 3); assay type: cell-based; settings: for WBC aggregates / platelet satellinism (platelets binding to WBCs) / platelets (single or aggregated) in stained wet mounts: PicoSAM samples, tirofiban 1 μM, eptifibatide 20 μM, iloprost 100 nM, EDTA anti-coagulated blood
# Protocol: Venous blood samples were drawn and mixed as described before in Example 1 and used to prepare stained wet mounts images. Blood samples were mixed with a staining and hemolyzing agent (methylene blue and deoxycholic acid, respectively) and incubated at 47° C. in a water bath for 30 seconds. Stained and hemolyzed blood samples were then prepared in wet mount samples on a glass slide and covered with a glass coverslip. Images of stained samples were then acquired with a Leica 750 microscope using a 40× air objective in bright field mode. An image processing software (FIJI, ImageJ) was used to select regions of interest (ROIs) of representative stained WBCs from the images.
# platelets [4] = test: Manual count of single platelets and platelet aggregates in heparinized blood with anti-platelet drug candidates (Example 1); settings: heparinized venous blood; for count of single platelets compared to EDTA reference / number of platelet aggregates compared to EDTA control: two concentration levels per drug; for platelet count compared to LiHep and PicoSAM controls: L-Arginine 600 μM and 6 mM, dipyridamole 10 and 100 μM
# Protocol: Each experiment was conducted on a separate day with blood from one voluntary donor testing one anti-platelet drug candidate. For each experiment PICO70 syringe samplers (Radiometer Medical ApS) were prepared just before sample drawing. For “LiHep” (Liquid Heparin) conditions, PICO70 samplers were emptied of the gold ball and heparin brick and 15 μl of aqueous liquid balanced heparin comprising heparin lithium (Celsus Laboratories) and heparin sodium (Celsus Laboratories) (final heparin conc. 60 IU/mL blood) and 15 μl of the solvent of the tested drug were added. For “PicoSAM” conditions, unmodified PICO70 samplers (with gold ball and heparin brick) were used and 15 μl of the solvent of the respective tested drug was added. For “LiHep xxx drug” conditions, PICO70 samplers were emptied as described for LiHep and 15 μl of liquid balanced heparin (final heparin conc. 60 IU/mL blood) and 15 μl of the dissolved tested drug were added. For “PicoSAM xxx drug” conditions, unmodified PICO70 samplers (with gold ball and heparin brick) were used and 15 μl of the dissolved tested drug was added. […] 600 μM and 6 mM) and dipyridamole (Sigma, D9766; dissolved in 1:10 or 1:100 DMSO in saline, final conc. 10 and 100 μM). An EDTA tube (BD Vacutainer with spray-coated K2EDTA, 10 ml) and duplicate samples of all conditions of PICO70 syringe samplers were filled by drawing venous blood via a butterfly needle using a sealed VTC (vented tip cap) to fill the otherwise self-aspirating PICO70 samplers with 1.5 mL venous whole blood. Samplers were inverted 8 times immediately after drawing to insure proper anti-coagulation of the samples. The blood samples were mixed gently by hand (samplers without gold ball) or on a SAM mixer (Radiometer Medical ApS) for 15 minutes after drawing the sample. Mixed samples were fixed immediately with 10% formalin solution (1:1 dilution of blood in formalin) for at least 10 minutes and further diluted 1:10 in platelet dilution solution to hemolyze red blood cells (RBCs) to assessed manual platelet count using a hemocytometer. […] Single platelet counts were adjusted for dilution with liquid heparin and or dissolved drug solution to calculate single platelet concentrations.
compound,measurement,setting,value
"O=C(O)CN(CCN(CC(=O)O)CC(=O)O)CC(=O)O [EDTA, Ethylenediaminetetraacetic acid]",Mean ABX PLT count,platelets [1]; Donor ID 4,200 PLT/nl
same,Mean ABX PLT count,platelets [1]; Donor ID 5,259 PLT/nl
same,Mean ABX PLT count,platelets [1]; Donor ID 6,185 PLT/nl
same,Mean ABX PLT count,platelets [1]; Donor ID 7,240 PLT/nl
same,Mean ABX PLT count,platelets [1]; Donor ID 8,202 PLT/nl
same,Mean ABX PLT count,platelets [1]; Donor ID 9,236 PLT/nl
same,platelet aggregates in microscopic images of blood samples,platelets [2],prevents platelet activation and maintains single platelets; also recorded: cannot be seen
same,Mean Manual PLT count,platelets [3]; Donor ID 4,200 PLT/nl
same,Mean Manual PLT count,platelets [3]; Donor ID 5,242 PLT/nl
same,Mean Manual PLT count,platelets [3]; Donor ID 6,189 PLT/nl
same,Mean Manual PLT count,platelets [3]; Donor ID 7,249 PLT/nl
same,Mean Manual PLT count,platelets [3]; Donor ID 8,207 PLT/nl
same,Mean Manual PLT count,platelets [3]; Donor ID 9,255 PLT/nl
same,WBC aggregates,platelets and WBCs,same results
same,platelet satellinism (platelets binding to WBCs),platelets and WBCs,same results
same,platelets (single or aggregated) in stained wet mounts,platelets and WBCs,same results
N=C(N)NCCC[C@H](N)C(=O)O [L-Arginine],count of single platelets compared to EDTA reference,platelets [4],decreased
same,number of platelet aggregates compared to EDTA control,platelets [4],higher
same,platelet count compared to LiHep and PicoSAM controls,platelets [4],slightly higher
"CC#CCC(C)[C@H](O)/C=C/[C@@H]1[C@H]2C/C(=C/CCCC(=O)O)C[C@H]2C[C@H]1O (stereo partly drawn) [Iloprost, iloprost]",Mean ABX PLT count,platelets [1]; Donor ID 4,204 PLT/nl
same,Mean ABX PLT count,platelets [1]; Donor ID 5,253 PLT/nl
same,Mean ABX PLT count,platelets [1]; Donor ID 6,173 PLT/nl
same,Mean ABX PLT count,platelets [1]; Donor ID 7,233 PLT/nl
same,Mean ABX PLT count,platelets [1]; Donor ID 8,191 PLT/nl
same,Mean ABX PLT count,platelets [1]; Donor ID 9,216 PLT/nl
same,"average performance of platelet count compared to EDTA samples as reference, ABX platelet count","platelets [1]; PicoSAM 1 μM iloprost, seven donors",97%
same,count of single platelets compared to EDTA reference,platelets [4],comparable
same,number of platelet aggregates compared to EDTA control,platelets [4],no or few
same,Mean Manual PLT count,platelets [3]; Donor ID 4,198 PLT/nl
same,Mean Manual PLT count,platelets [3]; Donor ID 5,242 PLT/nl
same,Mean Manual PLT count,platelets [3]; Donor ID 6,154 PLT/nl
same,Mean Manual PLT count,platelets [3]; Donor ID 7,247 PLT/nl
same,Mean Manual PLT count,platelets [3]; Donor ID 8,203 PLT/nl
same,Mean Manual PLT count,platelets [3]; Donor ID 9,202 PLT/nl
same,"average performance of platelet count compared to EDTA samples as reference, manual count","platelets [3]; PicoSAM 100 nM iloprost, one donor",97%
same,"average performance of platelet count compared to EDTA samples as reference, manual count","platelets [3]; PicoSAM 1 μM iloprost, eight donors",93%
same,WBC aggregation in the blood sample,platelets and WBCs,very low WBC aggregation
same,WBC aggregates,platelets and WBCs,not platelet satellinism or WBC aggregates
same,platelet satellinism (platelets binding to WBCs),platelets and WBCs,not platelet satellinism
same,platelets (single or aggregated) in stained wet mounts,platelets and WBCs,single platelets
eptifibatide acetate,platelet aggregates in microscopic images of blood samples,platelets [2],cannot be observed; also recorded: cannot be seen
same,count of single platelets compared to EDTA reference,platelets [4],comparable
same,number of platelet aggregates compared to EDTA control,platelets [4],no or few
same,WBC aggregates,platelets and WBCs,WBC aggregates were also observed
same,platelet satellinism (platelets binding to WBCs),platelets and WBCs,platelet satellinism
same,platelets (single or aggregated) in stained wet mounts,platelets and WBCs,single platelets
Heparin,platelet aggregates in microscopic images of blood samples,platelets [2],allows or even potentiates platelet aggregation; also recorded: showed platelet aggregates
"OCCN(CCO)c1nc(N2CCCCC2)c2nc(N(CCO)CCO)nc(N3CCCCC3)c2n1 [Dipyridamole, dipyridamole]",platelet count compared to LiHep and PicoSAM controls,platelets [4],slightly higher
"Clc1ccccc1CN1CCc2sccc2C1 [Ticlopidine, ticlopidine hydrochloride]",count of single platelets compared to EDTA reference,platelets [4],similar
"CCCCS(=O)(=O)N[C@@H](Cc1ccc(OCCCCC2CCNCC2)cc1)C(=O)O [Tirofiban, tirofiban hydrochloride monohydrate]",count of single platelets compared to EDTA reference,platelets [4],comparable
same,number of platelet aggregates compared to EDTA control,platelets [4],no or few
same,WBC aggregates,platelets and WBCs,WBC aggregates were also observed
same,platelet satellinism (platelets binding to WBCs),platelets and WBCs,platelet satellinism
same,platelets (single or aggregated) in stained wet mounts,platelets and WBCs,single platelets
